Measurements taken from patent publication US20240358693A1, “METHODS OF TREATING PAIN” (Aisa Pharma, Inc., priority 2023, published 2024).

Experiments:
participants with SSc-RP [1] = experiment: Average daily Raynaud's Condition Score (RCS); assay type: in vivo, human; parameters: key to Average Daily RCS, Mean / Average Daily RCS, Median / Average Daily RCS, Change from Baseline, Mean / Average Daily RCS, Change from Baseline, Median / Average daily RCS, Baseline, Mean / Average daily RCS, Baseline, Median / Mean RCS at baseline: RCS rated on a 0-10 cm VAS scale; settings: for Average Daily RCS, Change from Baseline, Mean / Average Daily RCS, Change from Baseline, Median / Average Daily RCS, Percent Change from Baseline, Mean / Average Daily RCS, Percent Change from Baseline, Median / Average Daily RCS, Mean / Average Daily RCS, Median / Average Daily RCS (dosing period), Mean / Average Daily RCS (dosing period), Median / Average daily RCS, Baseline, Mean / Average daily RCS, Baseline, Median: ITT Part A; for Average Daily RCS, Mean / Average Daily RCS, Median: dosing period
Source text: The RCS is based on how much difficulty participants had with Raynaud's today, how many attacks the participant had, and how long they lasted. In addition participants were and will be asked to consider how much pain, numbness, or other symptoms the Raynaud's caused in fingers (including painful sores), and how much the Raynaud's along affected the use of hand today (VAS 0-10 cm scale).
The absolute change in average daily RCS from baseline to the end of each dosing period was and will be a secondary outcome variable. The sponsor-developed participant-informed diary has been and will be used to record data. The average daily RCS is defined as the total RCS divided by the number of days with available diary data of each dosing period. Total RCS during screening period divided by the number of days with available data will be used as baseline for the analysis of all periods. If there are multiple daily RCS scores, the latest daily RCS will be used. The variable will be calculated similar to frequency data as before.

participants with SSc-RP [2] = experiment: Adverse events and serious adverse events (safety, tolerability); assay type: in vivo
Source text: An AE is any event, side effect, or other untoward medical occurrence that occurs in conjunction with the use of a medicinal product in humans, whether or not considered to have a causal relationship to this treatment.
Severity of AEs will be graded by the Investigator as one of: • Mild (Grade 1): A type of AE that is usually transient and may require only minimal treatment or therapeutic intervention.
An SAE is an AE occurring during any study phase (i.e., baseline, treatment, washout, or follow-up), and at any dose of the study drug (active or placebo), that fulfills one or more of the following: • Results in death • It is immediately life-threatening • It requires in participant hospitalization or prolongation of existing hospitalization • It results in persistent or significant disability or incapacity • Results in a congenital abnormality or birth defect • It is an important medical event that may jeopardize the participant or may require medical intervention to prevent one of the outcomes listed above.
Treatment-emergent AEs (TEAEs) are defined as AEs that occur or worsen after the dose of study drug. If the timing of the start of an AE could not be determined unambiguously from the start or end dates provided, it will be assumed to be a TEAE. An AE is considered related if the relationship to either of the study drug has been indicated as possibly or probably or definite related by the investigator. An AE leading to study withdrawal is defined as an AE that cause a subject early terminated from the study. AEs will be identified as emerging in the following parts: • TEAEs for Part A will be those that started during Part A (i.e., from the first dose in Part A to end of follow up of Part A). • TEAEs for Part B will be those that started during Part B (i.e., from the first dose in Part B to end of follow-up of Part B).
Adverse events were coded using the most current version of the MedDRA® Version 22.0 or higher. The analysis of AEs was based on the concept of treatment emergent AEs. Treatment emergent AEs were tabulated by treatment group and included the number of participants for whom the event occurred, the severity, and relationship to study drug. Treatment emergent AEs (TEAEs) leading to discontinuation and SAEs with onset after the start of study drug were also summarized. All AEs and SAEs (including those with onset or worsening before the start of study drug) through the end of the study were listed.

[3] = excluding outliers, dose Cilnidipine 10 mg, Tadalafil 5 mg, or 10 mg + 5 mg
[4] = excluding outliers, dose Cilnidipine 20 mg, or 20 mg + Tadalafil 5 mg
[5] = excluding outliers, pooled 10 mg and 20 mg Cilnidipine arms (combination: + Tadalafil 5 mg)
[6] = excluding outliers, pooled Cilnidipine 10 mg and Cilnidipine 10 mg + Tadalafil 5 mg
[7] = excluding outliers, pooled Cilnidipine 20 mg and Cilnidipine 20 mg + Tadalafil 5 mg
[8] = Pooled Cilnidipine 10 mg and Cilnidipine 10 mg + Tadalafil 5 mg
[9] = Pooled Cilnidipine 20 mg and Cilnidipine 20 mg + Tadalafil 5 mg

COCCOC(=O)C1=C(C)NC(C)=C(C(=O)OC/C=C/c2ccccc2)C1c1cccc([N+](=O)[O-])c1 (centres unmarked) [Cilnidipine, cilnidipine]
Average Daily RCS, Change from Baseline, Mean (participants with SSc-RP [1]; Cilnidipine 10 mg): −0.98
Average Daily RCS, Change from Baseline, Median (participants with SSc-RP [1]; Cilnidipine 10 mg): −0.98
Average Daily RCS, Percent Change from Baseline, Mean (participants with SSc-RP [1]; Cilnidipine 10 mg): −35.74%
Average Daily RCS, Percent Change from Baseline, Median (participants with SSc-RP [1]; Cilnidipine 10 mg): −35.74%
Average Daily RCS, Mean (participants with SSc-RP [1]; Cilnidipine 10 mg): 1.76
Average Daily RCS, Median (participants with SSc-RP [1]; Cilnidipine 10 mg): 1.76
Average Daily RCS, Change from Baseline, Mean (participants with SSc-RP [1]; Cilnidipine 20 mg): −0.45
Average Daily RCS, Change from Baseline, Median (participants with SSc-RP [1]; Cilnidipine 20 mg): −0.45
Average Daily RCS, Percent Change from Baseline, Mean (participants with SSc-RP [1]; Cilnidipine 20 mg): −17.16%
Average Daily RCS, Percent Change from Baseline, Median (participants with SSc-RP [1]; Cilnidipine 20 mg): −17.16%
Average Daily RCS, Mean (participants with SSc-RP [1]; Cilnidipine 20 mg): 2.90
Average Daily RCS, Median (participants with SSc-RP [1]; Cilnidipine 20 mg): 2.90
Daily RCS Change (participants with SSc-RP [1]; Cilnidipine (20 mg) (n = 3)): −28%
Mean % reduction in RCS (participants with SSc-RP [1]; Cilnidipine (20 mg) (n = 3)): 27.9%
Mean RCS at baseline (participants with SSc-RP [1]; Cilnidipine (20 mg) (n = 3)): 3.5
Average Daily RCS (dosing period), Mean (participants with SSc-RP [1]; [3]): 1.76
Average Daily RCS (dosing period), Median (participants with SSc-RP [1]; [3]): 1.76
Average Daily RCS, Change from Baseline, Mean (participants with SSc-RP [1]; [3]): −0.98
Average Daily RCS, Change from Baseline, Median (participants with SSc-RP [1]; [3]): −0.98
Average Daily RCS, Percent Change from Baseline, Mean (participants with SSc-RP [1]; [3]): −35.74%
Average Daily RCS, Percent Change from Baseline, Median (participants with SSc-RP [1]; [3]): −35.74%
Average daily RCS, Baseline, Mean (participants with SSc-RP [1]; [3]): 2.74
Average daily RCS, Baseline, Median (participants with SSc-RP [1]; [3]): 2.74
Average Daily RCS (dosing period), Mean (participants with SSc-RP [1]; [4]): 2.90
Average Daily RCS (dosing period), Median (participants with SSc-RP [1]; [4]): 2.90
Average Daily RCS, Change from Baseline, Mean (participants with SSc-RP [1]; [4]): −0.45
Average Daily RCS, Change from Baseline, Median (participants with SSc-RP [1]; [4]): −0.45
Average Daily RCS, Percent Change from Baseline, Mean (participants with SSc-RP [1]; [4]): −17.16%
Average Daily RCS, Percent Change from Baseline, Median (participants with SSc-RP [1]; [4]): −17.16%
Average daily RCS, Baseline, Mean (participants with SSc-RP [1]; [4]): 3.35
Average daily RCS, Baseline, Median (participants with SSc-RP [1]; [4]): 3.35
Average Daily RCS (dosing period), Mean (participants with SSc-RP [1]; [5]): 2.52
Average Daily RCS (dosing period), Median (participants with SSc-RP [1]; [5]): 1.76
Average Daily RCS, Change from Baseline, Mean (participants with SSc-RP [1]; [5]): −0.63
Average Daily RCS, Change from Baseline, Median (participants with SSc-RP [1]; [5]): −0.98
Average Daily RCS, Percent Change from Baseline, Mean (participants with SSc-RP [1]; [5]): −23.35%
Average Daily RCS, Percent Change from Baseline, Median (participants with SSc-RP [1]; [5]): −35.74%
Average daily RCS, Baseline, Mean (participants with SSc-RP [1]; [5]): 3.15
Average daily RCS, Baseline, Median (participants with SSc-RP [1]; [5]): 2.80
Average Daily RCS (dosing period), Mean (participants with SSc-RP [1]; [6]): 2.43
Average Daily RCS (dosing period), Median (participants with SSc-RP [1]; [6]): 1.76
Average Daily RCS, Change from Baseline, Mean (participants with SSc-RP [1]; [6]): −1.64
Average Daily RCS, Change from Baseline, Median (participants with SSc-RP [1]; [6]): −1.51
Average Daily RCS, Percent Change from Baseline, Mean (participants with SSc-RP [1]; [6]): −41.77%
Average Daily RCS, Percent Change from Baseline, Median (participants with SSc-RP [1]; [6]): −36.47%
Average daily RCS, Baseline, Mean (participants with SSc-RP [1]; [6]): 4.07
Average daily RCS, Baseline, Median (participants with SSc-RP [1]; [6]): 2.85
Average Daily RCS (dosing period), Mean (participants with SSc-RP [1]; [7]): 3.60
Average Daily RCS (dosing period), Median (participants with SSc-RP [1]; [7]): 3.82
Average Daily RCS, Change from Baseline, Mean (participants with SSc-RP [1]; [7]): −1.08
Average Daily RCS, Change from Baseline, Median (participants with SSc-RP [1]; [7]): −0.59
Average Daily RCS, Percent Change from Baseline, Mean (participants with SSc-RP [1]; [7]): −18.93%
Average Daily RCS, Percent Change from Baseline, Median (participants with SSc-RP [1]; [7]): −20.71%
Average daily RCS, Baseline, Mean (participants with SSc-RP [1]; [7]): 4.68
Average daily RCS, Baseline, Median (participants with SSc-RP [1]; [7]): 3.74
Average Daily RCS, Change from Baseline, Mean (participants with SSc-RP [1]; [8]): −1.64
Average Daily RCS, Change from Baseline, Median (participants with SSc-RP [1]; [8]): −1.51
Average Daily RCS, Percent Change from Baseline, Mean (participants with SSc-RP [1]; [8]): −41.77%
Average Daily RCS, Percent Change from Baseline, Median (participants with SSc-RP [1]; [8]): −36.47%
Average Daily RCS, Mean (participants with SSc-RP [1]; [8]): 2.43
Average Daily RCS, Median (participants with SSc-RP [1]; [8]): 1.76
Average Daily RCS, Change from Baseline, Mean (participants with SSc-RP [1]; [9]): −1.08
Average Daily RCS, Change from Baseline, Median (participants with SSc-RP [1]; [9]): −0.59
Average Daily RCS, Percent Change from Baseline, Mean (participants with SSc-RP [1]; [9]): −18.93%
Average Daily RCS, Percent Change from Baseline, Median (participants with SSc-RP [1]; [9]): −20.71%
Average Daily RCS, Mean (participants with SSc-RP [1]; [9]): 3.60
Average Daily RCS, Median (participants with SSc-RP [1]; [9]): 3.82
Daily RCS Change (participants with SSc-RP [1]; Pooled Cilnidipine (n = 7), this value n = 3): 12% (n = 3)
Average Daily RCS, Change from Baseline, Mean (participants with SSc-RP [1]; Pooled Cilnidipine): −0.63
Average Daily RCS, Change from Baseline, Median (participants with SSc-RP [1]; Pooled Cilnidipine): −0.98
Average Daily RCS, Percent Change from Baseline, Mean (participants with SSc-RP [1]; Pooled Cilnidipine): −23.35%
Average Daily RCS, Percent Change from Baseline, Median (participants with SSc-RP [1]; Pooled Cilnidipine): −35.74%
Average Daily RCS, Mean (participants with SSc-RP [1]; Pooled Cilnidipine): 2.52
Average Daily RCS, Median (participants with SSc-RP [1]; Pooled Cilnidipine): 1.76
Safety: number of AE (participants with SSc-RP [2]; Cilnidipine 20 mg, HA-mild, n = 8): 1AE (HA-mild; 1
Safety: withdrawals (participants with SSc-RP [2]; Cilnidipine 20 mg, n = 8): 1AE (HA-mild; 1
Safety: number of AE (participants with SSc-RP [2]; Pooled Cilnidipine, in combo with T, n = 9): 1AE (in combo with T);
Safety: withdrawals (participants with SSc-RP [2]; Pooled Cilnidipine, n = 9): no withdrawals
incidence of Adverse Events / overall adverse event rate (participants with SSc-RP [2]; all patients who received any dose of cilnidipine (n=17)): 17%
tolerability (participants with SSc-RP [2]; cilnidipine 10 mg and 20 mg, alone or in combination with tadalafil): well tolerated
severity grade of adverse events reported (participants with SSc-RP [2]; patients treated with cilnidipine): only mild (Grade 1)
Safety: grade of Adverse Events (AEs) (participants with SSc-RP [2]; summary of data (Table S)): Grade 1 Adverse
Safety: treatment D/Cs (discontinuations) (participants with SSc-RP [2]; summary of data (Table S)): No treatment D/Cs
